Reference: patent publication US20260124197A1, “NOVEL HETEROBICYCLIC COMPOUND FOR INHIBITING YAP-TEAD INTERACTION AND PHARMACEUTICAL COMPOSITION COMPRISING SAME” (priority 2022, published 2026)

Test system: TEAD transcriptional activity
Test: TEAD reporter activity inhibition test (luciferase reporter, MCF7 cell line)
Type: cell-based
Conditions: Homo sapiens; TEAD (GTIIC) firefly luciferase reporter MCF7 cell line, 24 hours, ONE-Glo luminescence
Method: Experimental Example 1: TEAD Reporter Activity Inhibition Test
The ability of the synthetic compounds to inhibit TEAD target gene transcription was measured. This evaluation method measures the transcriptional activity of TEAD by measuring the luciferase luminescence expressed when TEAD binds to a target gene and activates transcription using the MCF7 cell line (BPS Bioscience, Inc., USA) in which a firefly luciferase reporter gene has been introduced into the specific binding structure of TEAD, GTIIC (5′-ACATTCCA-3′). Cell lines were cultured in MEM medium added with 10% FBS, 1% Penicillin/Streptomycin, 1% non-essential amino acids, 10 μg/ml insulin, and 400 μg/ml Geneticin, and Geneticin was excluded when testing for inhibition of TEAD reporter activity. […] cells/100 μl were dispensed into a white 96-well plate and cultured for 6 hours. 50 μl of the test compound diluted to 3× concentration was mixed into each well. After 24 hours of cell culture, the luciferase signal was measured by luminescence using the ONE-Glo luciferase assay system (Promega, E6120) following the manufacturer's protocol. The 50% inhibition value (IC50) for TEAD transcriptional activity was calculated using GraphPad Prism 9.
If the IC50 value is less than 100 nM, it is indicated as A, if it is at least 100 nM but less than 500 nM, it is indicated as B, and if it is 500 nM or more, it is indicated as C.

Question: For `CNS(=O)(=O)c1ccc2c(c1)c(-c1c[nH]cn1)cn2-c1ccc(C(F)(F)F)cc1` [Example 29, 3-(1H-imidazol-4-yl)-N-methyl-1-(4-(trifluoromethyl)phenyl)-1H-indole-5-sulfonamide], which IC50 is on record?
Answer: Its IC50 is 100 to 500 nM.

Question: Which IC50 does the source give for `CNS(=O)(=O)c1ccc2c(c1)c(-c1cn(C)cn1)cn2-c1ccc(C#N)cc1` [Example 22, 1-(4-cyanophenyl)-N-methyl-3-(1-methyl-1H-imidazol-4-yl)-1H-indole-5-sulfonamide] here?
Answer: Its IC50 is at least 500 nM.

Question: Which IC50 does the source give for `CNS(=O)(=O)c1ccc2c(c1)c(-c1cn(Cc3ccccc3F)cn1)cn2-c1ccc(C(F)(F)F)cc1` [Example 30, 3-(1-(2-fluorobenzyl)-1H-imidazol-4-yl)-N-methyl-1-(4-(trifluoromethyl)phenyl)-1H-indole-5-sulfonamide] here?
Answer: The IC50 was under 100 nM.

Question: `CNS(=O)(=O)c1ccc2c(c1)c(-c1cn(C3COC3)cn1)cn2-c1ccc(C(F)(F)F)cc1` [Example 35, N-methyl-3-(1-(oxetan-3-yl)-1H-imidazol-4-yl)-1-(4-(trifluoromethyl)phenyl)-1H-indole-5-sulfonamide] was tested. Which IC50 did it give?
Answer: The IC50 was 100 to 500 nM.

Question: How did the IC50 turn out when `CNS(=O)(=O)c1ccc2c(c1)c(-c1ccncc1)cn2-c1ccc(C(F)(F)F)cc1` [Example 15, N-methyl-3-(pyridin-4-yl)-1-(4-(trifluoromethyl)phenyl)-1H-indole-5-sulfonamide] was run?
Answer: The IC50 was 100 to 500 nM.

Question: How did the IC50 turn out when `CNS(=O)(=O)c1ccc2c(c1)c(-c1cnn(C)c1)cn2-c1ccc(C(F)(F)F)cc1` [Example 4, N-methyl-3-(1-methyl-1H-pyrazol-4-yl)-1-(4-(trifluoromethyl)phenyl)-1H-indole-5-sulfonamide] was run?
Answer: The IC50 was 100 to 500 nM.

Question: How did the IC50 turn out when `CNS(=O)(=O)c1ccc2c(c1)c(-c1cn(C)cn1)cn2-c1ccc(C(F)(F)F)cn1` [Example 12, N-methyl-3-(1-methyl-1H-imidazol-4-yl)-1-(5-(trifluoromethyl)pyridin-2-yl)-1H-indole-5-sulfonamide] was run?
Answer: The IC50 was 100 to 500 nM.

Question: `CNS(=O)(=O)c1ccc2c(c1)c(-c1ccc(Cl)o1)cn2-c1ccc(C(F)(F)F)cc1` [Example 36, 3-(5-chlorofuran-2-yl)-N-methyl-1-(4-(trifluoromethyl)phenyl)-1H-indole-5-sulfonamide] was tested. Which IC50 did it give?
Answer: The IC50 was 100 to 500 nM.

Question: `CN(C)S(=O)(=O)c1ccc2c(c1)c(-c1cn(C)cn1)cn2-c1ccc(C(F)(F)F)cc1` [Example 19, N,N-dimethyl-3-(1-methyl-1H-imidazol-4-yl)-1-(4-(trifluoromethyl)phenyl)-1H-indole-5-sulfonamide] was tested. Which IC50 did it give?
Answer: The IC50 was at least 500 nM.

Question: With `CNS(=O)(=O)c1ccc2c(c1)c(-c1cn(CCS(C)(=O)=O)cn1)cn2-c1ccc(C(F)(F)F)cc1` [Example 48, N-methyl-3-(1-(2-(methylsulfonyl)ethyl)-1H-imidazol-4-yl)-1-(4-(trifluoromethyl)phenyl)-1H-indole-5-sulfonamide] as the compound, how does the IC50 read?
Answer: Its IC50 is 100 to 500 nM.

Question: How did the IC50 turn out when `CNS(=O)(=O)c1ccc2c(c1)c(-c1ccc(C)o1)cn2-c1ccccc1` [Example 24, N-methyl-3-(5-methylfuran-2-yl)-1-phenyl-1H-indole-5-sulfonamide] was run?
Answer: The IC50 was 100 to 500 nM.

Question: How did the IC50 turn out when `CNS(=O)(=O)c1ccc2c(c1)c(-c1cn(C)cn1)cn2-c1cccc(C(F)(F)F)c1` [Example 21, N-methyl-3-(1-methyl-1H-imidazol-4-yl)-1-(3-(trifluoromethyl)phenyl)-1H-indole-5-sulfonamide] was run?
Answer: The IC50 was 100 to 500 nM.

Question: `CCNS(=O)(=O)c1ccc2c(c1)c(-c1cn(C)cn1)cn2-c1ccc(C(F)(F)F)cc1` [Example 7, N-ethyl-3-(1-methyl-1H-imidazol-4-yl)-1-(4-(trifluoromethyl)phenyl)-1H-indole-5-sulfonamide] was tested. Which IC50 did it give?
Answer: Its IC50 is 100 to 500 nM.

Question: Which IC50 does the source give for `CNS(=O)(=O)c1ccc2c(c1)c(-c1ccccc1)cn2-c1ccc(C(F)(F)F)cc1` [Example 17, N-methyl-3-phenyl-1-(4-(trifluoromethyl)phenyl)-1H-indole-5-sulfonamide] here?
Answer: Its IC50 is 100 to 500 nM.

Question: Which IC50 does the source give for `CNS(=O)(=O)c1ccc2c(c1)c(-c1ccn(C)n1)cn2-c1ccc(C(F)(F)F)cc1` [Example 3, N-methyl-3-(1-methyl-1H-pyrazol-3-yl)-1-(4-(trifluoromethyl)phenyl)-1H-indole-5-sulfonamide] here?
Answer: The IC50 was 100 to 500 nM.

Question: Which IC50 does the source give for `CNS(=O)(=O)c1ccc2c(c1)c(-c1cn(C(C)C)cn1)cn2-c1ccc(C(F)(F)F)cc1` [Example 6, 3-(1-isopropyl-1H-imidazol-4-yl)-N-methyl-1-(4-(trifluoromethyl)phenyl)-1H-indole-5-sulfonamide] here?
Answer: The IC50 was at least 500 nM.

Question: How did the IC50 turn out when `CNS(=O)(=O)c1ccc2c(c1)c(-c1cnco1)cn2-c1ccc(C(F)(F)F)cc1` [Example 41, N-methyl-3-(oxazol-5-yl)-1-(4-(trifluoromethyl)phenyl)-1H-indole-5-sulfonamide] was run?
Answer: Its IC50 is 100 to 500 nM.

Question: `CNS(=O)(=O)c1ccc2c(c1)c(-c1cn(C)cn1)cn2-c1ccc(Cl)cc1` [Example 14, 1-(4-chlorophenyl)-N-methyl-3-(1-methyl-1H-imidazol-4-yl)-1H-indole-5-sulfonamide] was tested. Which IC50 did it give?
Answer: Its IC50 is 100 to 500 nM.

Question: For `CNS(=O)(=O)c1ccc2c(c1)c(-c1cn(C)cn1)cn2-c1ccc(C)cc1` [Example 39, N-methyl-3-(1-methyl-1H-imidazol-4-yl)-1-(p-tolyl)-1H-indole-5-sulfonamide], which IC50 is on record?
Answer: Its IC50 is 100 to 500 nM.

Question: Which IC50 does the source give for `CNS(=O)(=O)c1ccc2c(c1)c(-c1cn(C)cn1)cn2-c1ccccc1` [Example 26, N-methyl-3-(1-methyl-1H-imidazol-4-yl)-1-phenyl-1H-indole-5-sulfonamide] here?
Answer: Its IC50 is at least 500 nM.

Question: How did the IC50 turn out when `CNS(=O)(=O)c1ccc2c(c1)c(-c1cn(CC(F)(F)F)cn1)cn2-c1ccc(C(F)(F)F)cc1` [Example 37, N-methyl-3-(1-(2,2,2-trifluoroethyl)-1H-imidazol-4-yl)-1-(4-(trifluoromethyl)phenyl)-1H-indole-5-sulfonamide] was run?
Answer: Its IC50 is under 100 nM.

Question: Which IC50 does the source give for `CNS(=O)(=O)c1ccc2c(c1)c(-c1cn(CC(=O)N(C)C)cn1)cn2-c1ccc(C(F)(F)F)cc1` [Example 47, N,N-dimethyl-2-(4-(5-(N-methylsulfamoyl)-1-(4-(trifluoromethyl)phenyl)-1H-indol-3-yl)-1H-imidazole-1-yl) acetamide] here?
Answer: The IC50 was at least 500 nM.

Question: For `CNS(=O)(=O)c1ccc2c(c1)c(-c1cccc(F)c1F)cn2-c1ccc(C(F)(F)F)cc1` [Example 25, 3-(2,3-difluorophenyl)-N-methyl-1-(4-(trifluoromethyl)phenyl)-1H-indole-5-sulfonamide], which IC50 is on record?
Answer: The IC50 was under 100 nM.

Question: For `CNS(=O)(=O)c1ccc2c(c1)c(N1CC(F)C1)cn2-c1ccc(C(F)(F)F)cc1` [Example 46, 3-(3-fluoroazetidin-1-yl)-N-methyl-1-(4-(trifluoromethyl)phenyl)-1H-indole-5-sulfonamide], which IC50 is on record?
Answer: The IC50 was under 100 nM.

Question: For `CNS(=O)(=O)c1ccc2c(c1)c(-c1cn(C)cn1)cn2-c1ccc(OC(F)(F)F)cc1` [Example 5, N-methyl-3-(1-methyl-1H-imidazol-4-yl)-1-(4-(trifluoromethoxy)phenyl)-1H-indole-5-sulfonamide], which IC50 is on record?
Answer: The IC50 was 100 to 500 nM.

Question: Which IC50 does the source give for `CNS(=O)(=O)c1ccc2c(c1)c(-c1cn(C)cn1)cn2-c1ccc(C(C)(C)C)cc1` [Example 40, 1-(4-(t-butyl)phenyl)-N-methyl-3-(1-methyl-1H-imidazol-4-yl)-1H-indole-5-sulfonamide] here?
Answer: The IC50 was under 100 nM.

Question: `CNS(=O)(=O)c1ccc2c(c1)c(-c1ccc(C(F)(F)F)o1)cn2-c1ccc(C(F)(F)F)cc1` [Example 34, N-methyl-3-(5-(trifluoromethyl)furan-2-yl)-1-(4-(trifluoromethyl)phenyl)-1H-indole-5-sulfonamide] was tested. Which IC50 did it give?
Answer: The IC50 was 100 to 500 nM.

Question: With `CNS(=O)(=O)c1ccc2c(c1)c(-c1cn(C)cn1)cn2-c1ccc(C(F)(F)F)c(Cl)c1` [Example 27, 1-(3-chloro-4-(trifluoromethyl)phenyl)-N-methyl-3-(1-methyl-1H-imidazol-4-yl)-1H-indole-5-sulfonamide] as the compound, how does the IC50 read?
Answer: Its IC50 is under 100 nM.

Question: How did the IC50 turn out when `CNS(=O)(=O)c1ccc2c(c1)c(-c1cn(C)cn1)cn2-c1ccc(C2CCCCC2)cc1` [Example 18, 1-(4-cyclohexylphenyl)-N-methyl-3-(1-methyl-1H-imidazol-4-yl)-1H-indole-5-sulfonamide] was run?
Answer: The IC50 was at least 500 nM.

Question: For `CNS(=O)(=O)c1ccc2c(-c3cn(C)cn3)cn(-c3ccc(C(F)(F)F)cc3)c2c1` [Example 33, N-methyl-3-(1-methyl-1H-imidazol-4-yl)-1-(4-(trifluoromethyl)phenyl)-1H-indole-6-sulfonamide], which IC50 is on record?
Answer: The IC50 was 100 to 500 nM.

Question: `CNS(=O)(=O)c1ccc2c(c1)c(-c1ccc(C)s1)cn2-c1ccc(C(F)(F)F)cc1` [Example 9, N-methyl-3-(5-methylthiophen-2-yl)-1-(4-(trifluoromethyl)phenyl)-1H-indole-5-sulfonamide] was tested. Which IC50 did it give?
Answer: Its IC50 is 100 to 500 nM.

Question: How did the IC50 turn out when `CNS(=O)(=O)c1ccc2c(c1)c(-c1cn3c(n1)CCC3)cn2-c1ccc(C(F)(F)F)cc1` [Example 45, 3-(6,7-dihydro-5H-pyrrolo[1,2-a]imidazol-2-yl)-N-methyl-1-(4-(trifluoromethyl)phenyl)-1H-indole-5-sulfonamide] was run?
Answer: Its IC50 is under 100 nM.

Question: For `CNS(=O)(=O)c1ccc2c(c1)c(-c1nccnc1C)cn2-c1ccc(C(F)(F)F)cc1` [Example 1, N-methyl-3-(3-methylpyrazin-2-yl)-1-(4-(trifluoromethyl)phenyl)-1H-indole-5-sulfonamide], which IC50 is on record?
Answer: Its IC50 is at least 500 nM.
